# Assay results from PubChem BioAssay (NCI).
#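 In this assay, cells in 96-well plates receive the compound at five concentrations for 48 hours. Endpoints are linearly interpolated between the surrounding concentrations. Abbreviation: GI50, concentration required for 50% inhibition of growth. TGI marks complete inhibition of growth.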
# How the values were obtained:
# Test in all cases: inhibition of tumour cell growth, NCI panel, 48 h
# [1] = tested on: HT29 colon
# [2] = tested on: MOLT-4 leukemia
# [3] = tested on: HOP-92 NSCLC
# [4] = tested on: SF-295 CNS
# [5] = tested on: M14 melanoma
# [6] = tested on: KM12 colon
# [7] = tested on: A498 renal
# [8] = tested on: TK-10 renal
# [9] = tested on: MDA-MB-231 breast
# [10] = tested on: NCI-H460 lung
# [11] = tested on: PC-3 prostate
# [12] = tested on: MDA-MB-435
# [13] = tested on: SW-620 colon
# [14] = tested on: ACHN renal
# [15] = tested on: EKVX NSCLC
# [16] = tested on: LOX IMVI melanoma
# [17] = tested on: OVCAR-3 ovarian
# [18] = tested on: SNB-75 CNS
# [19] = tested on: 786-0 renal
# [20] = tested on: UACC-62 melanoma
# [21] = tested on: SK-MEL-2 melanoma
# [22] = tested on: NCI-H522 lung
# [23] = tested on: CAKI-1 renal
# [24] = tested on: NCI-H23 lung
# [25] = tested on: OVCAR-5 ovarian
# [26] = tested on: SK-MEL-5 melanoma
# [27] = tested on: RPMI-8226 leukemia
# [28] = tested on: SK-MEL-28 melanoma
# [29] = tested on: HS 578T breast
# [30] = tested on: UACC-257 melanoma
# [31] = tested on: MCF7 breast
# [32] = tested on: HCT-116 colon
# [33] = tested on: HL-60(TB) leukemia
# [34] = tested on: CCRF-CEM leukemia
# [35] = tested on: HCT-15 colon
# [36] = tested on: A549 NSCLC
# [37] = tested on: IGROV1 ovarian
# [38] = tested on: HOP-62 NSCLC
# [39] = tested on: OVCAR-4 ovarian
# [40] = tested on: UO-31 renal
# [41] = tested on: SNB-19 CNS
# [42] = tested on: BT-549 breast
# [43] = tested on: OVCAR-8 ovarian
# [44] = tested on: HCC-2998 colon
# [45] = tested on: SN12C renal
# [46] = tested on: SF-539 CNS
# [47] = tested on: RXF 393 renal
# [48] = tested on: U251 CNS
# [49] = tested on: SR leukemia
# [50] = tested on: NCI-H226 lung
# [51] = tested on: COLO 205 colon
# [52] = tested on: MDA-MB-468 breast
# [53] = tested on: K-562 leukemia
# [54] = tested on: DU-145 prostate
# [55] = tested on: T-47D breast
# [56] = tested on: SK-OV-3 ovarian
# [57] = tested on: SF-268 CNS
# [58] = tested on: MALME-3M melanoma
compound,measurement,setting,value
N#Cc1c(NC(=O)c2ccc(C(F)(F)F)cc2)sc2c1CCC(O)=C2,GI50,[1],4.61 µM
same,TGI,[1],18.3 µM
same,GI50,[2],4.43 µM
same,TGI,[2],> 100 µM
same,GI50,[3],2.85 µM
same,TGI,[3],21.9 µM
same,GI50,[4],4.08 µM
same,TGI,[4],16.7 µM
same,GI50,[5],3.6 µM
same,TGI,[5],15.8 µM
same,GI50,[6],3.16 µM
same,TGI,[6],13.1 µM
same,GI50,[7],14 µM
same,TGI,[7],34.2 µM
same,GI50,[8],13.3 µM
same,TGI,[8],50.3 µM
same,GI50,[9],2.96 µM
same,TGI,[9],14.3 µM
same,GI50,[10],3.53 µM
same,TGI,[10],14.2 µM
same,GI50,[11],6.12 µM
same,TGI,[11],> 100 µM
same,GI50,[12],1.23 µM
same,TGI,[12],3.31 µM
same,GI50,[13],3.13 µM
same,TGI,[13],14 µM
same,GI50,[14],6.81 µM
same,TGI,[14],27.9 µM
same,GI50,[15],7.4 µM
same,TGI,[15],31.4 µM
same,GI50,[16],4.56 µM
same,TGI,[16],16.8 µM
same,GI50,[17],3.24 µM
same,TGI,[17],12 µM
same,GI50,[18],1.12 µM
same,TGI,[18],6.1 µM
same,GI50,[19],5.53 µM
same,TGI,[19],22.1 µM
same,GI50,[20],3.23 µM
same,TGI,[20],16.2 µM
same,GI50,[21],3.21 µM
same,TGI,[21],11.7 µM
same,GI50,[22],2.53 µM
same,TGI,[22],12 µM
same,GI50,[23],3.05 µM
same,TGI,[23],16 µM
same,GI50,[24],4.91 µM
same,TGI,[24],22 µM
same,GI50,[25],5.38 µM
same,TGI,[25],25 µM
same,GI50,[26],2.71 µM
same,TGI,[26],9.4 µM
same,GI50,[27],3.53 µM
same,TGI,[27],> 100 µM
same,GI50,[28],6.17 µM
same,TGI,[28],25.8 µM
same,GI50,[29],2.32 µM
same,TGI,[29],14.1 µM
same,GI50,[30],6.64 µM
same,TGI,[30],29.4 µM
same,GI50,[31],3.03 µM
same,TGI,[31],21.7 µM
same,GI50,[32],3.49 µM
same,TGI,[32],13.4 µM
same,GI50,[33],2.77 µM
same,TGI,[33],> 100 µM
same,GI50,[34],3.21 µM
same,TGI,[34],> 100 µM
same,GI50,[35],3.51 µM
same,TGI,[35],15.8 µM
same,GI50,[36],6.36 µM
same,TGI,[36],24.1 µM
same,GI50,[37],5.23 µM
same,TGI,[37],19 µM
same,GI50,[38],4.49 µM
same,TGI,[38],17.8 µM
same,GI50,[39],7.47 µM
same,TGI,[39],35 µM
same,GI50,[40],2.12 µM
same,TGI,[40],16.4 µM
same,GI50,[41],7.46 µM
same,TGI,[41],24.3 µM
same,GI50,[42],2.82 µM
same,TGI,[42],19.3 µM
same,GI50,[43],5.71 µM
same,TGI,[43],22.3 µM
same,GI50,[44],7.46 µM
same,TGI,[44],21.2 µM
same,GI50,[45],4.08 µM
same,TGI,[45],16.5 µM
same,GI50,[46],2.1 µM
same,TGI,[46],6.92 µM
same,GI50,[47],2.38 µM
same,TGI,[47],12.7 µM
same,GI50,[48],4.13 µM
same,TGI,[48],16.5 µM
same,GI50,[49],1.48 µM
same,TGI,[49],> 100 µM
same,GI50,[50],4.03 µM
same,TGI,[50],19.2 µM
same,GI50,[51],13.4 µM
same,TGI,[51],30 µM
same,GI50,[52],2.12 µM
same,TGI,[52],8.11 µM
same,GI50,[53],2.23 µM
same,TGI,[53],> 100 µM
same,GI50,[54],6.53 µM
same,TGI,[54],22 µM
same,GI50,[55],3.13 µM
same,TGI,[55],24.9 µM
same,GI50,[56],4.36 µM
same,TGI,[56],20 µM
same,GI50,[57],3.87 µM
same,TGI,[57],20.7 µM
same,GI50,[58],2.29 µM
same,TGI,[58],12 µM
